Results published in BindingDB's records for doi:10.1021/acs.jmedchem.0c01741 (Zhengzhou University, 2020).

Key:
[1] = Inhibition of ABCB1 in multidrug-resistant human SW620/Ad300 cells assessed as increase in reversal of resistance to paclitaxel-induced cytotoxicity by measuring paclitaxel IC50 pre-incubated for 4 hrs followed by paclitaxel addition and measured after 72 hrs by MTT assay (Rvb = 4.23 +/- 0.6 uM)
[2] = Inhibition of ABCB1 in multidrug-resistant human SW620/Ad300 cells assessed as increase in reversal of resistance to paclitaxel-induced cytotoxicity by measuring paclitaxel IC50 at 10 uM pre-incubated for 4 hrs followed by paclitaxel addition and measured after 72 hrs by MTT assay (Rvb = 4233.18 +/- 499.10 nM)
[3] = Inhibition of ABCB1 (unknown origin) expressed in HEK293 cells assessed as increase in reversal of resistance to paclitaxel-induced cytotoxicity by measuring paclitaxel IC50 at 20 uM pre-incubated for 4 hrs followed by paclitaxel addition and measured after 72 hrs by MTT assay (Rvb = 91.40 +/- 23.32 nM)
[4] = Inhibition of ABCB1 in multidrug-resistant human KB-C2 cells assessed as increase in reversal of resistance to paclitaxel-induced cytotoxicity by measuring paclitaxel IC50 at 20 uM pre-incubated for 4 hrs followed by paclitaxel addition and measured after 72 hrs by MTT assay (Rvb = 1886.37 +/- 243.05 nM)
[5] = Inhibition of ABCB1 in multidrug-resistant human SW620/Ad300 cells assessed as increase in reversal of resistance to paclitaxel-induced cytotoxicity by measuring paclitaxel IC50 at 20 uM pre-incubated for 4 hrs followed by paclitaxel addition and measured after 72 hrs by MTT assay (Rvb = 4233.18 +/- 499.10 nM)
[6] = Inhibition of ABCB1 (unknown origin) expressed in HEK293 cells assessed as increase in reversal of resistance to paclitaxel-induced cytotoxicity by measuring paclitaxel IC50 at 10 uM pre-incubated for 4 hrs followed by paclitaxel addition and measured after 72 hrs by MTT assay (Rvb = 91.40 +/- 23.32 nM)
[7] = Inhibition of ABCB1 in multidrug-resistant human KB-C2 cells assessed as increase in reversal of resistance to paclitaxel-induced cytotoxicity by measuring paclitaxel IC50 at 10 uM pre-incubated for 4 hrs followed by paclitaxel addition and measured after 72 hrs by MTT assay (Rvb = 1886.37 +/- 243.05 nM)

C=CCSc1nc2nc(C)cc(Nc3ccc(F)cc3)n2n1
IC50 [1]: 4200 nM

CC(C)c1cc(Nc2ccc(F)cc2)n2nc(SCc3ccccc3)nc2n1
IC50 [1]: 1440 nM

Cc1cc(Nc2ccc(F)cc2)n2nc(SCC(=O)c3ccccc3)nc2n1
IC50 [1]: 1260 nM

Cc1cc(Nc2ccc(F)c(Cl)c2)n2nc(SCc3nc4ccccc4[nH]3)nc2n1
IC50 [1]: 770 nM

Cc1cc(Nc2ccc(F)cc2)n2nc(SCC3CC3)nc2n1
IC50 [1]: 4110 nM

Cc1cc(Nc2ccc(OC(F)(F)F)cc2)n2nc(SCc3nc4ccccc4[nH]3)nc2n1
IC50 [1]: 720 nM

Cc1ccc(Nc2cc(C)nc3nc(SCc4nc5ccccc5[nH]4)nn23)cc1
IC50 [1]: 500 nM

Cc1cc(Nc2ccc(F)cc2)n2nc(SCc3c(Cl)cccc3Cl)nc2n1
IC50 [1]: 1930 nM

Cc1cc(Nc2ccc(F)cc2)n2nc(SCc3nc4ccccc4[nH]3)nc2n1
IC50 [1]: 22 nM
IC50 [2]: 73.6 nM
IC50 [3]: 5 nM
IC50 [4]: 4.8 nM
IC50 [5]: 22 nM
IC50 [6]: 10 nM
IC50 [7]: 22 nM

O=c1cc(-c2ccccc2)[nH]c2nc(SCc3nc4ccccc4[nH]3)nn12
IC50 [1]: 660 nM

Cc1cc(Nc2ccc(F)cc2)n2nc(SCCCc3ccccc3)nc2n1
IC50 [1]: 4220 nM

Cc1cc(Nc2cc(C)[nH]n2)n2nc(SCc3nc4ccccc4[nH]3)nc2n1
IC50 [1]: 1570 nM

C#CCSc1nc2nc(C)cc(Nc3ccc(F)cc3)n2n1
IC50 [1]: 3360 nM

Cc1cc(Nc2ccccc2F)n2nc(SCc3nc4ccccc4[nH]3)nc2n1
IC50 [1]: 220 nM

Cc1cc(Nc2ccc(C(F)(F)F)cc2)n2nc(SCc3nc4ccccc4[nH]3)nc2n1
IC50 [1]: 850 nM

Cc1cc(Nc2cccc(F)c2)n2nc(SCc3nc4ccccc4[nH]3)nc2n1
IC50 [1]: 520 nM

Cc1cc(Nc2ccc(F)cc2)n2nc(SCc3cccc(Br)c3)nc2n1
IC50 [1]: 2040 nM

Cc1cc(Nc2ccc(F)cc2)n2nc(SCc3ccc([N+](=O)[O-])cc3)nc2n1
IC50 [1]: 2280 nM

Cc1cc(Nc2ccc(Br)cc2)n2nc(SCc3nc4ccccc4[nH]3)nc2n1
IC50 [1]: 450 nM

Cc1cc(Nc2ccc(F)cc2)n2nc(SCc3ccc(F)cc3)nc2n1
IC50 [1]: 1270 nM

COc1ccc(Nc2cc(C)nc3nc(SCc4nc5ccccc5[nH]4)nn23)cc1
IC50 [1]: 320 nM

Cc1cc(Nc2ccc(F)cc2)n2nc(SCc3ccccc3Br)nc2n1
IC50 [1]: 1640 nM

COc1cc(Nc2cc(C)nc3nc(SCc4nc5ccccc5[nH]4)nn23)cc(OC)c1OC
IC50 [1]: 250 nM

Cc1cc(Nc2ccc(F)cc2)n2nc(SCc3ccc(Br)cc3)nc2n1
IC50 [1]: 1370 nM

Cc1cc(Nc2ccc(F)cc2)n2nc(SCc3csc4ccc(Cl)cc34)nc2n1
IC50 [1]: 2840 nM

Cc1cc(Nc2ccc(N3CCN(C)CC3)cc2)n2nc(SCc3nc4ccccc4[nH]3)nc2n1
IC50 [1]: 1590 nM

Cc1cc(Nc2ccc(F)cc2)n2nc(SCc3cccc4ccccc34)nc2n1
IC50 [1]: 1740 nM

Cc1cc(Nc2ccc(F)cc2)n2nc(SCCc3ccccc3)nc2n1
IC50 [1]: 1550 nM

C#Cc1cccc(Nc2cc(C)nc3nc(SCc4nc5ccccc5[nH]4)nn23)c1
IC50 [1]: 1430 nM

Cc1cc(Nc2ccc(C#N)cc2)n2nc(SCc3nc4ccccc4[nH]3)nc2n1
IC50 [1]: 590 nM

Cc1cc(Nc2ccc(F)c(C)c2)n2nc(SCc3nc4ccccc4[nH]3)nc2n1
IC50 [1]: 470 nM

Cc1cc(Nc2ccc(F)cc2)n2nc(SCc3ccc(C(F)(F)F)cc3)nc2n1
IC50 [1]: 2570 nM

COc1cccc(Nc2cc(C)nc3nc(SCc4nc5ccccc5[nH]4)nn23)c1
IC50 [1]: 570 nM

Cc1cc(Nc2ccc(C(=O)O)cc2)n2nc(SCc3nc4ccccc4[nH]3)nc2n1
IC50 [1]: 4080 nM

Cc1cc(Nc2ccc(Cl)cc2Cl)n2nc(SCc3nc4ccccc4[nH]3)nc2n1
IC50 [1]: 710 nM

Cc1cc(Nc2ccc(F)cc2)n2nc(SCc3cccc([N+](=O)[O-])c3)nc2n1
IC50 [1]: 1990 nM

Cc1cc(Nc2ccc(F)cc2)n2nc(SCc3ccc(Cl)cc3)nc2n1
IC50 [1]: 1890 nM

CC(=O)c1ccc(Nc2cc(C)nc3nc(SCc4nc5ccccc5[nH]4)nn23)cc1
IC50 [1]: 760 nM

Cc1cc(Nc2ccc(O)cc2)n2nc(SCc3nc4ccccc4[nH]3)nc2n1
IC50 [1]: 2380 nM

Cc1ccc(Nc2cc(C)nc3nc(SCc4nc5ccccc5[nH]4)nn23)c(F)c1
IC50 [1]: 630 nM

Cc1cc(Nc2ccc3c(C)cc(=O)oc3c2)n2nc(SCc3nc4ccccc4[nH]3)nc2n1
IC50 [1]: 1140 nM

CCCSc1nc2nc(C)cc(Nc3ccc(F)cc3)n2n1
IC50 [1]: 3540 nM
